Experimental data reported in the supplement of paper PMC10307832.

Tests used:
Assay in all cases: relative viability (nuclei count vs DMSO), 5 days (fraction); higher = more cells survive
[1] = system: HCC-78
How it was run: (§1)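 Relative viability is defined as nuclei in treated wells over nuclei in vehicle wells. Duplicate plates were run and medians reported. Lung cancer cell lines in 1536-well plates were dosed by pin tool one day after seeding, with one drug or with a fixed anchor-drug dose plus five library-drug doses (not always all listed) in √10 steps, and nuclei were counted after 5 days.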

[2] = system: SK-LU-1
How it was run: as §1

[3] = system: NCI-H2085
How it was run: as §1

[4] = system: NCI-H358
How it was run: as §1

[5] = system: NCI-H1666
How it was run: as §1

[6] = system: NCI-H1915
How it was run: as §1

[7] = system: EPLC-272H
How it was run: as §1

[8] = system: COR-L 105
How it was run: as §1

[9] = system: SW 900
How it was run: as §1

[10] = system: UMC-11
How it was run: as §1

[11] = system: HOP-62
How it was run: as §1

[12] = system: NCI-H1793
How it was run: as §1

[13] = system: NCI-H460
How it was run: as §1

[14] = system: NCI-H1792
How it was run: as §1

[15] = system: LU99A
How it was run: as §1

[16] = system: NCI-H2170
How it was run: as §1

[17] = system: NCI-H1944
How it was run: as §1

[18] = system: HCC-366
How it was run: as §1

[19] = system: A-427
How it was run: as §1

[20] = system: NCI-H2009
How it was run: as §1

[21] = system: LXF-289
How it was run: as §1

[22] = system: LC-2-ad
How it was run: as §1

COc1cc2nccc(Oc3ccc(NC(=O)Nc4cc(C)on4)c(Cl)c3)c2cc1OC [Tivozanib] + CC(=O)c1c(C)c2cnc(Nc3ccc(N4CCNCC4)cn3)nc2n(C2CCCC2)c1=O [Palbociclib] (partner 0.5 µM)
relative viability ([1]; first compound 0.005 µM): 0.514
relative viability ([1]; first compound 0.01581 µM): 0.438
relative viability ([1]; first compound 0.05 µM): 0.474
relative viability ([1]; first compound 0.1581 µM): 0.416
relative viability ([1]; first compound 0.5 µM): 0.463
relative viability ([2]; first compound 0.005 µM): 0.372
relative viability ([2]; first compound 0.01581 µM): 0.396
relative viability ([2]; first compound 0.05 µM): 0.386
relative viability ([2]; first compound 0.1581 µM): 0.367
relative viability ([2]; first compound 0.5 µM): 0.37
relative viability ([3]; first compound 0.005 µM): 0.458
relative viability ([3]; first compound 0.01581 µM): 0.478
relative viability ([3]; first compound 0.05 µM): 0.512
relative viability ([3]; first compound 0.1581 µM): 0.512
relative viability ([3]; first compound 0.5 µM): 0.503
relative viability ([4]; first compound 0.005 µM): 0.123
relative viability ([4]; first compound 0.01581 µM): 0.165
relative viability ([4]; first compound 0.05 µM): 0.122
relative viability ([4]; first compound 0.1581 µM): 0.133
relative viability ([4]; first compound 0.5 µM): 0.157
relative viability ([5]; first compound 0.005 µM): 0.628
relative viability ([5]; first compound 0.01581 µM): 0.666
relative viability ([5]; first compound 0.05 µM): 0.639
relative viability ([5]; first compound 0.1581 µM): 0.668
relative viability ([5]; first compound 0.5 µM): 0.642
relative viability ([6]; first compound 0.005 µM): 0.537
relative viability ([6]; first compound 0.01581 µM): 0.553
relative viability ([6]; first compound 0.05 µM): 0.538
relative viability ([6]; first compound 0.1581 µM): 0.484
relative viability ([6]; first compound 0.5 µM): 0.503
relative viability ([7]; first compound 0.005 µM): 0.268
relative viability ([7]; first compound 0.01581 µM): 0.303
relative viability ([7]; first compound 0.05 µM): 0.35
relative viability ([7]; first compound 0.1581 µM): 0.348
relative viability ([7]; first compound 0.5 µM): 0.282
relative viability ([8]; first compound 0.005 µM): 0.411
relative viability ([8]; first compound 0.01581 µM): 0.436
relative viability ([8]; first compound 0.05 µM): 0.433
relative viability ([8]; first compound 0.1581 µM): 0.404
relative viability ([8]; first compound 0.5 µM): 0.415
relative viability ([9]; first compound 0.005 µM): 0.519
relative viability ([9]; first compound 0.01581 µM): 0.552
relative viability ([9]; first compound 0.05 µM): 0.559
relative viability ([9]; first compound 0.5 µM): 0.531
relative viability ([10]; first compound 0.005 µM): 0.288
relative viability ([10]; first compound 0.01581 µM): 0.327
relative viability ([10]; first compound 0.05 µM): 0.32
relative viability ([10]; first compound 0.1581 µM): 0.304
relative viability ([10]; first compound 0.5 µM): 0.307
relative viability ([11]; first compound 0.005 µM): 0.499
relative viability ([11]; first compound 0.01581 µM): 0.419
relative viability ([11]; first compound 0.05 µM): 0.495
relative viability ([11]; first compound 0.1581 µM): 0.438
relative viability ([11]; first compound 0.5 µM): 0.397
relative viability ([12]; first compound 0.005 µM): 0.309
relative viability ([12]; first compound 0.01581 µM): 0.343
relative viability ([12]; first compound 0.05 µM): 0.354
relative viability ([12]; first compound 0.5 µM): 0.422
relative viability ([13]; first compound 0.005 µM): 0.147
relative viability ([13]; first compound 0.01581 µM): 0.196
relative viability ([13]; first compound 0.05 µM): 0.141
relative viability ([13]; first compound 0.1581 µM): 0.22
relative viability ([13]; first compound 0.5 µM): 0.209
relative viability ([14]; first compound 0.005 µM): 0.686
relative viability ([14]; first compound 0.01581 µM): 0.643
relative viability ([14]; first compound 0.05 µM): 0.553
relative viability ([14]; first compound 0.1581 µM): 0.698
relative viability ([14]; first compound 0.5 µM): 0.747
relative viability ([15]; first compound 0.005 µM): 0.431
relative viability ([15]; first compound 0.01581 µM): 0.412
relative viability ([15]; first compound 0.05 µM): 0.429
relative viability ([15]; first compound 0.1581 µM): 0.306
relative viability ([15]; first compound 0.5 µM): 0.408
relative viability ([16]; first compound 0.005 µM): 0.398
relative viability ([16]; first compound 0.01581 µM): 0.392
relative viability ([16]; first compound 0.05 µM): 0.414
relative viability ([16]; first compound 0.5 µM): 0.388
relative viability ([17]; first compound 0.005 µM): 0.303
relative viability ([17]; first compound 0.01581 µM): 0.365
relative viability ([17]; first compound 0.05 µM): 0.344
relative viability ([17]; first compound 0.1581 µM): 0.296
relative viability ([17]; first compound 0.5 µM): 0.324
relative viability ([18]; first compound 0.005 µM): 0.394
relative viability ([18]; first compound 0.01581 µM): 0.422
relative viability ([18]; first compound 0.05 µM): 0.362
relative viability ([18]; first compound 0.1581 µM): 0.343
relative viability ([18]; first compound 0.5 µM): 0.322
relative viability ([19]; first compound 0.005 µM): 0.51
relative viability ([19]; first compound 0.01581 µM): 0.55
relative viability ([19]; first compound 0.05 µM): 0.511
relative viability ([19]; first compound 0.1581 µM): 0.531
relative viability ([19]; first compound 0.5 µM): 0.476
relative viability ([20]; first compound 0.005 µM): 0.212
relative viability ([20]; first compound 0.01581 µM): 0.209
relative viability ([20]; first compound 0.05 µM): 0.23
relative viability ([20]; first compound 0.1581 µM): 0.109
relative viability ([20]; first compound 0.5 µM): 0.119
relative viability ([21]; first compound 0.005 µM): 0.575
relative viability ([21]; first compound 0.01581 µM): 0.576
relative viability ([21]; first compound 0.05 µM): 0.6
relative viability ([21]; first compound 0.1581 µM): 0.66
relative viability ([21]; first compound 0.5 µM): 0.612
relative viability ([22]; first compound 0.005 µM): 0.471
relative viability ([22]; first compound 0.01581 µM): 0.47
relative viability ([22]; first compound 0.05 µM): 0.478
relative viability ([22]; first compound 0.1581 µM): 0.369
relative viability ([22]; first compound 0.5 µM): 0.297
